Format in all cases: in vivo
The subject of assay [1] is Magnaporthe grisea; Anamorph: Pyricularia oryzae. In words: whole plant or invertebrate. To be noted: 24 h, read-out: PYRIOR 1 DP disease control.
In the next assay the test system is Alternaria solani. In words: Tomato Early Blight (ALTESO) fungicidal activity on tomato plants. To be noted: 24 h, 1 Day Protectant, read-out: ALTESO 1 DP disease control. How it is done: Technical grades of materials were dissolved in acetone, which were then mixed with nine volumes of water (H2O) containing 110 ppm Triton X-100. The fungicide solutions were applied onto wheat seedlings using an automated booth sprayer to run-off. All sprayed plants were allowed to air dry prior to further handling. All fungicides were evaluated using the aforementioned method for their activity vs. all target diseases, unless stated otherwise. Wheat leaf blotch and brown rust activity were also evaluated using track spray applications, in which case the fungicides were formulated as EC formulations, containing 0.1% Trycol 5941 in the spray solutions. Wheat plants (variety Yuma) were grown from seed in a greenhouse in 50% mineral soil/50% soil-less Metro mix until the first leaf was fully emerged, with 7-10 seedlings per pot. These plants were inoculated with an aqueous spore suspension of Septoria tritici either prior to or after fungicide treatments. After inoculation the plants were kept in 100% relative humidity (one day in a dark dew chamber followed by two to three days in a lighted dew chamber at 20° C.) to permit spores to germinate and infect the leaf. The plants were then transferred to a greenhouse set at 20° C. for disease to develop. When disease symptoms were fully expressed on the 1st leaves of untreated plants, infection levels were assessed on a scale of 0 to 100 percent disease severity. Percent disease control was calculated using the ratio of disease severity on treated plants relative to untreated plants. Example I: Evaluation of Fungicidal Activity: Tomato Early Blight (Alternaria solani; Bayer code […]) Tomato plants (variety Outdoor Girl) were propagated in soil-less Metro mix, with each pot having one plant, and used when 12 to 14 days old. Test plants were inoculated with an aqueous spore suspension of Alternaria solani 24 h after fungicide treatments. After inoculation the plants were kept in 100% relative humidity (one day in a dark dew chamber followed by two to three days in a lighted dew chamber at 20° C.) to permit spores to germinate and infect the leaf. The plants were then transferred to a growth room at 22° C. for disease to develop. Fungicide formulation, application and disease assessment on the sprayed leaves followed the procedures as described in the Example A.

The test system of another assay is Leptosphaeria nodorum. In words: Wheat Glume Blotch (LEPTNO) fungicidal activity on wheat seedlings. To be noted: Parastagonospora nodorum, 24 h, 1 Day Protectant, read-out: LEPTNO 1 DP disease control. How it is done: Technical grades of materials were dissolved in acetone, which were then mixed with nine volumes of water (H2O) containing 110 ppm Triton X-100. The fungicide solutions were applied onto wheat seedlings using an automated booth sprayer to run-off. All sprayed plants were allowed to air dry prior to further handling. All fungicides were evaluated using the aforementioned method for their activity vs. all target diseases, unless stated otherwise. Wheat leaf blotch and brown rust activity were also evaluated using track spray applications, in which case the fungicides were formulated as EC formulations, containing 0.1% Trycol 5941 in the spray solutions. Wheat plants (variety Yuma) were grown from seed in a greenhouse in 50% mineral soil/50% soil-less Metro mix until the first leaf was fully emerged, with 7-10 seedlings per pot. These plants were inoculated with an aqueous spore suspension of Septoria tritici either prior to or after fungicide treatments. After inoculation the plants were kept in 100% relative humidity (one day in a dark dew chamber followed by two to three days in a lighted dew chamber at 20° C.) to permit spores to germinate and infect the leaf. The plants were then transferred to a greenhouse set at 20° C. for disease to develop. When disease symptoms were fully expressed on the 1st leaves of untreated plants, infection levels were assessed on a scale of 0 to 100 percent disease severity. Percent disease control was calculated using the ratio of disease severity on treated plants relative to untreated plants. Example C: Evaluation of Fungicidal Activity: Wheat Glume Blotch (Leptosphaeria nodorum; Bayer code […]) Wheat plants (variety Yuma) were grown from seed in a greenhouse in 50% mineral soil/50% soil-less Metro mix until the first leaf was fully emerged, with 7-10 seedlings per pot. These plants were inoculated with an aqueous spore suspension of Leptosphaeria nodorum 24 h after fungicide treatments. After inoculation the plants were kept in 100% relative humidity (one day in a dark dew chamber followed by two days in a lighted dew chamber at 20° C.) to permit spores to germinate and infect the leaf. The plants were then transferred to a greenhouse set at 20° C. for disease to develop. Fungicide formulation, application and disease assessment followed the procedures as described in the Example A.

Some results are limits rather than exact numbers.

For the molecule `COc1ccnc(C(=O)N[C@@H](C)C(=O)O[C@@H](C)C(c2ccccc2)c2ccccc2)c1OC(C)=O` [Cmpd 139, (S)-(S)-1,1-diphenylpropan-2-yl 2-(3-acetoxy-4-methoxypicolinamido)propanoate], the pest or weed control at 100 ppm was above 80% in assay [1], below 80% in the assay on Alternaria solani and above 80% in the assay on Leptosphaeria nodorum.
Regarding `COc1ccnc(C(=O)N[C@@H](C)C(=O)O[C@@H](C)C(c2ccc(F)cc2F)c2ccc(F)cc2F)c1OC(C)=O` [Cmpd 150], the pest or weed control at 100 ppm (in assay [1]; with Alternaria solani; in the assay with Leptosphaeria nodorum) was above 80% in each case.
For the molecule `COc1ccnc(C(=O)N[C@@H](C)C(=O)O[C@@H](C)C(c2ccc(Cl)cc2)c2ccc(Cl)cc2)c1OCOC(C)=O` [Cmpd 176], the pest or weed control at 100 ppm in assay [1] was above 80%; with Alternaria solani it was below 80%; in the assay on Leptosphaeria nodorum, above 80%.
On to `COc1ccnc(C(=O)N[C@@H](C)C(=O)O[C@@H](C)C(c2ccccc2)c2ccccc2)c1OC(=O)C(C)C` [Cmpd 140], for which the pest or weed control at 100 ppm (in assay [1]; with Alternaria solani; with Leptosphaeria nodorum) was above 80% in each case.
As for `COc1ccnc(C(=O)N[C@@H](C)C(=O)O[C@@H](C)C(c2ccc(F)cc2)c2ccc(F)cc2)c1OCOC(C)=O` [Cmpd 146], the pest or weed control at 100 ppm (in assay [1]; in the assay with Alternaria solani; in the assay on Leptosphaeria nodorum) was above 80% in each case.
Take `COc1ccnc(C(=O)N[C@@H](C)C(=O)O[C@@H](C)C(c2ccc(F)cc2)c2ccc(F)cc2)c1OC(C)=O` [Cmpd 145]: the pest or weed control at 100 ppm (in assay [1]; with Alternaria solani; in the assay with Leptosphaeria nodorum) was above 80% in each case.
For the molecule `COc1ccnc(C(=O)N[C@@H](C)C(=O)O[C@@H](C)C(c2ccccc2)c2ccccc2)c1OCOC(C)=O` [Cmpd 141, (S)-(S)-1,1-diphenylpropan-2-yl 2-(3-(acetoxymethoxy)-4-methoxypicolinamido)propanoate], the pest or weed control at 100 ppm in assay [1] is above 80%; in the assay on Alternaria solani, below 80%; with Leptosphaeria nodorum, above 80%.
For `COc1ccnc(C(=O)N[C@@H](C)C(=O)O[C@@H](C)C(c2ccccc2)c2ccccc2)c1OCOC(=O)C(C)C` [Cmpd 142, (S)-(S)-1,1-diphenylpropan-2-yl 2-(3-((isobutyryloxy)methoxy)-4-methoxypicolinamido)propanoate], the pest or weed control at 100 ppm (in assay [1]; in the assay on Alternaria solani; in the assay on Leptosphaeria nodorum) was above 80% each time.
Regarding `COc1ccnc(C(=O)N[C@@H](C)C(=O)O[C@@H](C)C(c2ccc(F)cc2F)c2ccc(F)cc2F)c1OCOC(C)=O` [Cmpd 148], the figures for the pest or weed control at 100 ppm (in assay [1]; in the assay with Alternaria solani; in the assay with Leptosphaeria nodorum) were above 80%, below 80% and above 80%, respectively.
Regarding `COc1ccnc(C(=O)N[C@@H](C)C(=O)O[C@@H](C)C(c2ccc(Cl)cc2)c2ccc(Cl)cc2)c1OC(C)=O` [Cmpd 174], the pest or weed control at 100 ppm in assay [1] is above 80%; in the assay with Alternaria solani it was below 80%; in the assay with Leptosphaeria nodorum, above 80%.

For the origin of these results see US20240423207A1, “PICOLINAMIDE COMPOUNDS WITH FUNGICIDAL ACTIVITY” (CORTEVA AGRISCIENCE LLC, priority 2014, published 2024).
